In ChEMBL document CHEMBL3045408, “Receptor and ligand-based 3D-QSAR study on a series of nonsteroidal anti-inflammatory drugs” (Med Chem Res, 2013) one finds IC50 and -log(RatioIC50) data, which are given here for ten compounds.

For experiment [1], the target named is T1, Prostaglandin G/H synthase 2 (Homo sapiens, UniProt P35354).
T1 sequence (P35354 whole entry): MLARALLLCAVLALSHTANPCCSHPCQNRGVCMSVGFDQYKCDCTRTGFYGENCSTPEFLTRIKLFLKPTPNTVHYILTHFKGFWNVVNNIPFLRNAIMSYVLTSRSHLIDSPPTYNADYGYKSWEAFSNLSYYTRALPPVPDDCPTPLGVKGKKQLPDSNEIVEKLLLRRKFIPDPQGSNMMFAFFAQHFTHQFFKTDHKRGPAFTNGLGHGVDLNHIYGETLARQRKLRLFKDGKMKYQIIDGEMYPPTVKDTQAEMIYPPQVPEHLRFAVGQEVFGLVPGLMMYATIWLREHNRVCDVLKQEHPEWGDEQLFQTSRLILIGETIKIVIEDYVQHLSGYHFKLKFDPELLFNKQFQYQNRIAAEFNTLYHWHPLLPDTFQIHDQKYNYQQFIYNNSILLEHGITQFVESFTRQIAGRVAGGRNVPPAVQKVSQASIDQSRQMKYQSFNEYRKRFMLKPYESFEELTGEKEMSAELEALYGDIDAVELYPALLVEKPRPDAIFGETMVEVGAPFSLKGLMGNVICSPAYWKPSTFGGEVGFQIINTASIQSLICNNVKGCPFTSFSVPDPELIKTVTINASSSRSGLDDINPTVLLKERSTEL
Briefly: Inhibition of COX2 (unknown origin).

Experiment [2] has as its target T2, Prostaglandin G/H synthase 2 (Homo sapiens) (UniProt P35354).
T2 sequence (whole entry): T1 sequence (P35354 whole entry)
Put plainly: Ratio of compound IC50 to celecoxib IC50 for Inhibition of COX2 (unknown origin).

Broadly, the IC50 is the concentration that gives 50% inhibition. A lower IC50 goes with greater potency.

`CS(=O)(=O)c1ccc(/C=C(/C(=O)O)c2cccc(-c3ccc(F)cc3F)c2)cc1`: the IC50 in experiment [1] was > 100000 nM. In addition, the -log(RatioIC50) in experiment [2] was -3.2.
The compound `CC/C(=C(\c1ccccc1)c1ccc(NS(C)(=O)=O)cc1)c1ccccc1` returned a 50% inhibitory concentration (IC50) in experiment [1] of 1800 nM. The -log(RatioIC50) in experiment [2] is -1.41.
In the same order, the values of `CC(C)Oc1ccc(-c2cccc(/C(=C\c3ccc(S(C)(=O)=O)cc3)C(=O)O)c2)cc1` are > 100000 nM and -3.2.
Regarding `CCCCC(=C(c1ccccc1)c1cc(C(C)(C)C)c(O)c(C(C)(C)C)c1)c1ccc(S(C)(=O)=O)cc1`, in experiment [1], the IC50 was determined as 360 nM. In experiment [2], the -log(RatioIC50) was -0.711.
In experiment [1], `CS(=O)(=O)c1ccc(C=C(c2ccc(Cl)cc2)c2ccc(Cl)cc2)cc1` had an IC50 of 2000 nM. This counts as single-digit micromolar.
`CS(=O)(=O)Nc1ccc(/C(=C(\c2ccccc2)C2CCCCC2)c2ccccc2)cc1`: the IC50 in experiment [1] was > 100000 nM. Further, in experiment [2], the -log(RatioIC50) is -3.15.
For `CCCCC(=C(c1ccccc1)c1cc(C(C)(C)C)c(C(C)=O)c(C(C)(C)C)c1)c1ccc(S(C)(=O)=O)cc1`, the IC50 in experiment [1] was > 100000 nM. Moreover, the -log(RatioIC50) in experiment [2] was -3.2.
For `CCCC/C(=C(\c1ccccc1)c1ccc(NS(C)(=O)=O)cc1)c1ccccc1` the same measures were 320 nM and -0.66.
For `CCC(=C(c1ccccc1)c1ccccc1)c1ccc(S(C)(=O)=O)cc1` the same measures were 1250 nM and -1.34.
As for `CCCCC(=C(c1ccccc1)c1ccccc1)c1ccc(S(C)(=O)=O)cc1`, the -log(RatioIC50) in experiment [2] worked out at 0.609.
